Data published in patent US7312305B2, “Tumor cytotoxicity induced by modulators of the CXCR4 receptor” (Morehouse School of Medicine, priority 2003, dated 2007).

How the values were obtained:
[1] = tested on: epithelial tumor cell lines, HUVECs; experiment: Apoptotic assay with gp 120 and Nef peptides; type: cell-based, human
Excerpt: The nef protein was expressed and purified in the inventors' laboratory. overlapping 20 mer peptides encompassing the entire nef protein and overlapping 15 mer peptides encompassing the entire gp 120 protein were obtained from the NIH AIDS Research & Reference Reagent Program (McKesson HBC BioServices, MD) Other specific peptides designed from within gp 120 or nef were obtained from SigmaGenosys.
Apoptosis, Terminal Deoxynucleotidyl Transferase dUTP Nick-end Labeling (TUNEL) Assay
Apoptosis generates DNA free ends which can be labeled in situ using terminal deoxynucleotidyl-transferase (TdT), incorporating an exogenously added labeled nucleotide to the DNA strand. This label can then be visualized directly by fluorescence or indirectly using anti-FITC-peroxidase, and a calorimetric assay. Cells on coverslips were washed with PBS, and fixed for 30 minutes at RT with 4% paraformaldehyde, in PBS, pH 7.4. They were then washed with PBS, and permeabilized with 0.1% Triton X-100
for 10 minutes at room temperature (RT). The slides were rinsed twice with PBS, and air dried for 2 minutes. The manufacturer's procedure for TUNEL staining the slides was followed (manufacturer's procedure for the In Situ Cell Death Detection Kit, AP; Boehringer Mannheim, Indianapolis, Ind.). Total cell counts were determined by counterstaining fixed cultures with 20 μg/ml of Hoechst 33258. All specimens were observed by epifluorescence on a computer-controlled microscope system based on a Zeiss Axioskop microscope (Carl Zeiss, Thornwood, N.Y.), and the images were obtained and examined using a charged coupled device (CCD) camera, MagnaFire, model S99806 (Olympus American, Melville, N.Y.). Images were examined using Image-Pro Plus 4.1 for Windows (Media Cybernetics, Silver Springs, Md.) software.
Overlapping peptide sets obtained from the AIDS Reagent Bank were used in the apoptotic assay as disclosed above. Specific pg 120 and Nef peptides within those sets were identified as inducing apoptosis in epithelial tumor cell lines, as well as in HUVECs. Alternatively, these same peptides had no effect in primary mammary epithelium or in MDA-MB-468 tumor lines.

[2] = tested on: MDA-MB-231, MCF7, DU4475; experiment: Agarose gel electrophoresis/DNA fragmentation, CXCR4 expressing cell lines; type: cell-based, human; conditions: 10 mM (6.35 mg/ml) ceramide
Experimental: Apoptosis Assay: Agarose Gel Electrophoresis/DNA Fragmentation
Untreated or treated cells were collected, and DNA was harvested from normal or cancer cell cultures. Briefly, the cells were washed with PBS, pelleted at 1600 g for 20 minutes at 4° C., and resuspended in 50 mM Tris-HCl, pH 7.5, 20 mM EDTA buffer at about 10^ 7 cells/ml. The cells were then treated 2× with lysis buffer: 1.0% NP-40 (Sigma, St. Louis, Mo.) in the same Tris/EDTA buffer at RT for 2 minutes followed, by centrifugation at 1600 g for 5 minutes. After the last spin, SDS was added to the supernatant to 1% final concentration, RNase A (Sigma, St. Louis, Mo.) was added to 5 mg/mil final concentration, and the solution incubated at 56° C. for 2 hours. Subsequently, protease K (Promega, Madison, Wis.) was added to the solution to 2.5. µg/ml and incubated at 37° C. for 2.5 hr. Ammonium acetate was added to 4 M final concentration, 0.7 volumes of isopropanol was added, the solution was put at −20° C. overnight followed by centrifugation at 14,000 rpm for 30 minutes. The pellets were washed twice with 70% ethanol, dried and resuspended in 10 mM Tris-HCl, pH […]. DNA samples, 18 µg per condition, were prepared in neutral loading buffer to a final concentration of 0.02% bromophenol blue, 5% glycerol, 0.1% SDS, and 50 µg of ethidium bromide, loaded onto a neutral agarose gel (1.7%), and run at50V for 2.5 hours. […]

Substance: ALAETCONAWA [Seq. I.D. No. 8, reference compound]
- apoptotic/modulator properties of peptide or motif [1]: lost all apoptotic effects

Substance: Ceramide
- DNA laddering, positive control [2]: DNA laddering characteristic of apoptotic cells was observed

Substance: GRAFYTT [Seq. I.D. No. 9, motif within the V3 loop of Gp 120, amino acids 315 to 321]
- apoptotic/modulator properties of peptide or motif [1]: apoptosis-inducing motif

Substance: GRAFYTTKY [Seq. I.D. No. 11]
- apoptosis relative to that observed from the full gp 120 protein ([1]; equivalent molar ration (9 mer peptide is 2% of the full protein)): about 60%

Substance: NAACAWLEAQ [Seq. I.D. No. 7, 10 mer peptide spanning amino acids 50-60 of the Nef protein]
- apoptosis relative to that observed for the full Nef protein ([1]; equivalent molar ration (10 mer peptide is 5% the amount of full protein)): ~100%
